From US20160362408A1 (Bayer Pharma Aktiengesellschaft, priority 2013, published 2016) come the findings set out here.

Molecules are shown by their SMILES. Counter-ions that a name gives are not always drawn.

The test has as its target T1, recombinant guanylate cyclase reporter cell line (Rattus norvegicus, UniProt P19686+P20595).
T1 construct: expressed in transfected cells
T1 sequence (P19686 1-690): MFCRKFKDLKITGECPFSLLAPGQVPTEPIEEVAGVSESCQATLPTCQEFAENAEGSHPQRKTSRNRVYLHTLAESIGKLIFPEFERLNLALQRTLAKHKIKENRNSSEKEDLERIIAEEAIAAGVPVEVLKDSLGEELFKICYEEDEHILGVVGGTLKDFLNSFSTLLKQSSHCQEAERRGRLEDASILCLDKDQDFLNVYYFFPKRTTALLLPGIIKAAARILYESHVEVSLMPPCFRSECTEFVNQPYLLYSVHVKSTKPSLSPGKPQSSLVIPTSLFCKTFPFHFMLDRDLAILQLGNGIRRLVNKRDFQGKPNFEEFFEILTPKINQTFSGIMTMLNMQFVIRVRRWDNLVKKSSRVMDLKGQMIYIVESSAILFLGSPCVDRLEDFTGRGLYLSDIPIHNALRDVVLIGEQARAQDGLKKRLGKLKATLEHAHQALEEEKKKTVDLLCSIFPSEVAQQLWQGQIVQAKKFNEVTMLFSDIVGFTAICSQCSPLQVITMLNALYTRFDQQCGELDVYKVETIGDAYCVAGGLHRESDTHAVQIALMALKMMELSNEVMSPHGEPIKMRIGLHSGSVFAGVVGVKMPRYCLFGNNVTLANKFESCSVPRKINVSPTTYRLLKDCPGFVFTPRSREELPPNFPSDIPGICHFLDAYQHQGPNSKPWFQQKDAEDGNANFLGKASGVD
T1 sequence (P20595 1-619): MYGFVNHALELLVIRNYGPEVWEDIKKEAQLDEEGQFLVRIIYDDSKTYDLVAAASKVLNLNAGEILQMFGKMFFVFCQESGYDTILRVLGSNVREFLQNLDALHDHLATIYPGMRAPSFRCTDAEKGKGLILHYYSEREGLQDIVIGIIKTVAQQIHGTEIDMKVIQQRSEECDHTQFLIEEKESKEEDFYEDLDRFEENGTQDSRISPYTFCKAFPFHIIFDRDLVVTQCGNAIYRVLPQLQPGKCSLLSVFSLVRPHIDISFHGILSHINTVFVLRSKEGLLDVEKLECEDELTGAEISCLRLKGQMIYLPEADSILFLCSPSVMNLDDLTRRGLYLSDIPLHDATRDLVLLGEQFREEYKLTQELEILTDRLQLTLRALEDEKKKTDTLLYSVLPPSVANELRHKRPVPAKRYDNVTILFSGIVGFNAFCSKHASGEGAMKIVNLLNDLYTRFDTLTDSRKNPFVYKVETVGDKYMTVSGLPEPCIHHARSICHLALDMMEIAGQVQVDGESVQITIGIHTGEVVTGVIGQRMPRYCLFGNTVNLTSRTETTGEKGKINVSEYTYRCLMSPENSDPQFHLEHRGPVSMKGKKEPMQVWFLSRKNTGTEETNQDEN
The experiment in a line: Effect on a recombinant guanylate cyclase reporter cell line. Format: cell-based. Conditions: MEC = minimum effective concentration; in some cases mean values for individual determinations. The procedure:
B-2. Effect on a Recombinant Guanylate Cyclase Reporter Cell Line
The cellular action of the compounds of the invention is determined using a recombinant guanylate cyclase reporter cell line, as described in F. Wunder et al., Anal. Biochem. 339, 104-112 (2005).
Representative MEC values (MEC=minimum effective concentration) for the compounds of the invention are shown in the table below (in some cases as mean values for individual determinations): […]
As for `Cc1nc2c(OCc3c(F)cccc3F)cccn2c1C(=O)Nc1cn[nH]c1` [Example 31, 8-[(2,6-difluorobenzyl)oxy]-2-methyl-N-(1H-pyrazol-4-yl)imidazo[1,2-a]pyridine-3-carboxamide], the MEC turned out to be 1.0 µM. To `Cc1cccc(C)c1NC(=O)c1c(C)nc2c(OCc3c(F)cccc3F)cccn12` [Example 58, 8-[(2,6-difluorobenzyl)oxy]-N-(2,6-dimethylphenyl)-2-methylimidazo[1,2-a]pyridine-3-carboxamide] belongs 0.3 µM; to `Cc1cc(OCc2c(F)cccc2F)c2nc(C)c(C(=O)Nc3ccccc3CN)n2c1` [Example 112, N-[2-(Aminomethyl)phenyl]-8-[(2,6-difluorobenzyl)oxy]-2,6-dimethylimidazo[1,2-a]pyridine-3-carboxamide], 0.3 µM; to `Cc1nc2c(OCc3c(F)cccc3F)cc(Cl)cn2c1C(=O)Nc1ccnc2ccc(F)cc12` [Example 92], 0.1 µM. In the case of `CNC(=O)c1c(NC(=O)c2c(C)nc3c(OCc4c(F)cccc4F)cccn23)cnn1C` [Example 36, 8-[(2,6-difluorobenzyl)oxy]-2-methyl-N-[1-methyl-5-(methylcarbamoyl)-1H-pyrazol-4-yl]imidazo[1,2-a]pyridine-3-carboxamide], the MEC was 1.0 µM.

Turning to `Cc1nc2c(OCc3c(F)cccc3F)cccn2c1C(=O)Nc1cccc2ccccc12` [Example 56, 8-[(2,6-difluorobenzyl)oxy]-2-methyl-N-(naphthalen-1-yl)imidazo[1,2-a]pyridine-3-carboxamide], the MEC was 0.1 µM.

With `Cc1cc(OCCC(C(F)(F)F)C(F)(F)F)c2nc(C)c(C(=O)Nc3c(C)nn(Cc4ccccc4F)c3C)n2c1` [Example 148], the MEC came out at 1.0 µM. Turning to `Cc1nc2c(OCc3c(F)cccc3F)cc(Cl)cn2c1C(=O)Nc1ccccc1CN` [Example 104, N-[2-(Aminomethyl)phenyl]-6-chloro-8-[(2,6-difluorobenzyl)oxy]-2-methylimidazo[1,2-a]pyridine-3-carboxamide], the MEC is 3.0 µM. To `Cc1nc2c(OCc3c(F)cccc3F)cc(Cl)cn2c1C(=O)Nc1cnn2ccccc12` [Example 82] belongs 0.3 µM.

With `Cc1nc2c(OCc3c(F)cccc3F)cccn2c1C(=O)Nc1ccnc2cc(C(F)(F)F)ccc12` [Example 100], the MEC was 1.65 µM. The figure for `Cc1nc2c(OCc3c(F)cccc3F)cccn2c1C(=O)Nc1cnn(COCC(F)(F)F)c1` [Example 90] is 0.3 µM; for `Cc1nc2c(OCc3c(F)cccc3F)cccn2c1C(=O)Nc1ccccc1CN` [Example 111, N-[2-(Aminomethyl)phenyl]-8-[(2,6-difluorobenzyl)oxy]-2-methylimidazo[1,2-a]pyridine-3-carboxamide] it is 1.0 µM; for `Cc1nc2c(OCc3c(F)cccc3F)cc(Cl)cn2c1C(=O)Nc1cnn(CCO)c1` [Example 46, 6-chloro-8-[(2,6-difluorobenzyl)oxy]-N-[1-(2-hydroxyethyl)-1H-pyrazol-4-yl]-2-methylimidazo[1,2-a]pyridine-3-carboxamide] it is 0.1 µM. `Cc1nc2c(OCc3c(F)cccc3F)cccn2c1C(=O)Nc1c[nH]c2ccccc12` [Example 2]: the MEC is 0.1 µM. The figure for `Cc1nc2c(OCc3c(F)cccc3F)cccn2c1C(=O)Nc1c(-c2ccccc2)noc1C` [Example 55, 8-[(2,6-Difluorobenzyl)oxy]-2-methyl-N-(5-methyl-3-phenyl-1,2-oxazol-4-yl)imidazo[1,2-a]pyridine-3-carboxamide] is 1.0 µM; for `CCc1cc(NC(=O)c2c(C)nc3c(OCc4c(F)cccc4F)cccn23)ccn1` [Example 8] it is 0.1 µM. The figure for `Cc1n[nH]c(C(F)(F)F)c1NC(=O)c1c(C)nc2c(OCc3c(F)cccc3F)cc(Cl)cn12` [Example 40, 6-chloro-8-[(2,6-difluorobenzyl)oxy]-2-methyl-N-[3-methyl-5-(trifluoromethyl)-1H-pyrazol-4-yl]imidazo[1,2-a]pyridine-3-carboxamide] is 0.03 µM. With `Cc1cc(NC(=O)c2c(C)nc3c(OCc4c(F)cccc4F)cccn23)cc(C)n1` [Example 101], the MEC is 1.0 µM.

As to `Cc1nc2c(OCc3c(F)cccc3F)cccn2c1C(=O)Nc1cnn(CCS(C)(=O)=O)c1` [Example 135, 8-[(2,6-Difluorobenzyl)oxy]-2-methyl-N-{1-[2-(methylsulphonyl)ethyl]-1H-pyrazol-4-yl}imidazo[1,2-a]pyridine-3-carboxamide], the MEC was 3.0 µM. The figure for `Cc1n[nH]c(C)c1NC(=O)c1c(C)nc2c(OCc3c(F)cccc3F)cc(F)cn12` [Example 48, 8-[(2,6-Difluorobenzyl)oxy]-N-(3,5-dimethyl-1H-pyrazol-4-yl)-6-fluoro-2-methylimidazo[1,2-a]pyridine-3-carboxamide] is 0.3 µM; for `Cc1nc2c(OCc3c(F)cccc3F)cccn2c1C(=O)Nc1cccnc1` [Example 95] it is 0.3 µM.

As to `Cc1nc2c(OCc3c(F)cccc3F)cccn2c1C(=O)Nc1cnn(CCN2CCCC2)c1` [Example 128, 8-[(2,6-difluorobenzyl)oxy]-2-methyl-N-{1-[2-(pyrrolidin-1-yl)ethyl]-1H-pyrazol-4-yl}imidazo [1,2-a]pyridine-3-carboxamide], the MEC is 3.0 µM. In the case of `Cc1nn(C)c(C)c1NC(=O)c1c(C)nc2c(OCc3c(F)cccc3F)cccn12` [Example 57, 8-[(2,6-Difluorobenzyl)oxy]-2-methyl-N-(1,3,5-trimethyl-1H-pyrazol-4-yl)imidazo[1,2-a]pyridine-3-carboxamide], the MEC came out at 3.0 µM.

With `Cc1cc(NC(=O)c2c(C)nc3c(OCc4c(F)cccc4F)cccn23)c2ccccc2n1` [Example 69], the MEC worked out at 0.55 µM. The figure for `Cc1cc(OCc2c(F)cccc2F)c2nc(C)c(C(=O)Nc3cnn(COCC(F)(F)F)c3)n2c1` [Example 89] is 0.1 µM; for `Cc1nn(C)cc1NC(=O)c1c(C)nc2c(OCc3c(F)cccc3F)cccn12` [Example 4] it is 0.3 µM; for `Cc1nc2c(OCc3c(F)cccc3F)cccn2c1C(=O)Nc1cccc2cccc(Cl)c12` [Example 60, N-(8-Chloronaphthalen-1-yl)-8-[(2,6-difluorobenzyl)oxy]-2-methylimidazo[1,2-a]pyridine-3-carboxamide trifluoroacetate] it is 0.3 µM. On to `Cc1noc(C)c1NC(=O)c1c(C)nc2c(OCc3c(F)cccc3F)cc(Cl)cn12` [Example 39, 6-Chloro-8-[(2,6-difluorobenzyl)oxy]-N-(3,5-dimethyl-1,2-oxazol-4-yl)-2-methylimidazo[1,2-a]pyridine-3-carboxamide], for which the MEC stood at 1.0 µM. As to `Cc1nc2c(OCc3c(F)cccc3F)cccn2c1C(=O)Nc1nnc(C2CC2)s1` [Example 84], the MEC came out at 3.0 µM. The figure for `Cc1cnc(NC(=O)c2c(C)nc3c(OCc4c(F)cccc4F)cccn23)s1` [Example 146, 8-[(2,6-difluorobenzyl)oxy]-2-methyl-N-(5-methyl-1,3-thiazol-2-yl)imidazo[1,2-a]pyridine-3-carboxamide] is 3.0 µM. The figure for `Cc1cc(OCc2c(F)cccc2F)c2nc(C)c(C(=O)Nc3ccnc4ccc(F)cc34)n2c1` [Example 91, 8-[(2,6-Difluorobenzyl)oxy]-N-(6-fluoroquinolin-4-yl)-2,6-dimethylimidazo[1,2-a]pyridine-3-carboxamide] is 0.01 µM. To `Cc1nc2c(OCc3c(F)cccc3F)cccn2c1C(=O)Nc1cnn(Cc2cccc(F)c2)c1` [Example 35, 8-[(2,6-difluorobenzyl)oxy]-N-[1-(3-fluorobenzyl)-1H-pyrazol-4-yl]-2-methylimidazo[1,2-a]pyridine-3-carboxamide] belongs 3.0 µM; to `Cc1nc2c(OCc3c(F)cccc3F)cccn2c1C(=O)Nc1ccc2c(c1)OCC(=O)N2` [Example 6], 0.1 µM.
